Values quoted from earlier work in US20060204588A1, “Formulations of a nanoparticulate finasteride, dutasteride or tamsulosin hydrochloride, and mixtures thereof” (Elan Pharma International Limited, priority 2005, published 2006).

CC(C)(C)NC(=O)[C@H]1CC[C@H]2[C@@H]3CC[C@H]4NC(=O)C=C[C@]4(C)[C@H]3CC[C@]12C [Finasteride, (5alpha,17beta)-N-(1,1-dimethylethyl)-3-oxo-4-azaandrost-1-ene-17-carboxamide]
Solubility in alcohol (alcohol): soluble | Solubility in chloroform (chloroform): freely soluble | Solubility in lower alcohol solvents (lower alcohol solvents): freely soluble | Solubility in water: practically insoluble

C[C@]12C=CC(=O)N[C@@H]1CC[C@@H]1[C@@H]2CC[C@]2(C)[C@@H](C(=O)Nc3cc(C(F)(F)F)ccc3C(F)(F)F)CC[C@@H]12 [Dutasteride, (5α, 17β)-(2,5 bis-(trifluoromethyl)phenyl)-3-oxo-4-azaandrost-1-ene-17-carboxamide]
Solubility in water: insoluble

CCOc1ccccc1OCCNC(C)Cc1ccc(OC)c(S(N)(=O)=O)c1.Cl (single isomer, unassigned; (-)) [Tamsulosin hydrochloride]
Solubility in ethanol (in words) (ethanol): slightly soluble | Solubility in ether (ether): practically insoluble | Solubility in glacial acetic acid (glacial acetic acid): slightly soluble | Solubility in methanol (in words) (methanol): sparingly soluble | Solubility in water: sparingly soluble
